Measured values reported in paper PMC12390684 (Viruses, 2025).
Where “and” joins values, the source holds several entries; their conditions need not be identical. Equal values may be shown once. Read-outs that look alike come from different tables or passages of the source.

Legend:
HIV-1Laï = assay: microbe, parasite or virus in culture; format: cell-based; settings: for EC50: Human immunodeficiency virus 1, MAGI; for SI (CC50/EC50): selectivity index
[1] = Cytotoxicity (CellTiter 96 AQueous); format: cell-based; settings: human
[2] = target: IN-GCN2 interaction (6xHis-IN / GST-GCN2) (UniProt P04585+Q9P2K8); assay: biochemical; format: binding, HIV-1 IN; human GCN2; settings: for IC50: SAR study, fresh dilutions from powder, at least three independent experiments; for IN-GCN2 interaction (%): screen, single dose 100 µM, single replicate, residual AlphaLISA signal normalized to DMSO control
Sequence of IN-GCN2 interaction (6xHis-IN / GST-GCN2) (Q9P2K8 192-1024, other chains not shown): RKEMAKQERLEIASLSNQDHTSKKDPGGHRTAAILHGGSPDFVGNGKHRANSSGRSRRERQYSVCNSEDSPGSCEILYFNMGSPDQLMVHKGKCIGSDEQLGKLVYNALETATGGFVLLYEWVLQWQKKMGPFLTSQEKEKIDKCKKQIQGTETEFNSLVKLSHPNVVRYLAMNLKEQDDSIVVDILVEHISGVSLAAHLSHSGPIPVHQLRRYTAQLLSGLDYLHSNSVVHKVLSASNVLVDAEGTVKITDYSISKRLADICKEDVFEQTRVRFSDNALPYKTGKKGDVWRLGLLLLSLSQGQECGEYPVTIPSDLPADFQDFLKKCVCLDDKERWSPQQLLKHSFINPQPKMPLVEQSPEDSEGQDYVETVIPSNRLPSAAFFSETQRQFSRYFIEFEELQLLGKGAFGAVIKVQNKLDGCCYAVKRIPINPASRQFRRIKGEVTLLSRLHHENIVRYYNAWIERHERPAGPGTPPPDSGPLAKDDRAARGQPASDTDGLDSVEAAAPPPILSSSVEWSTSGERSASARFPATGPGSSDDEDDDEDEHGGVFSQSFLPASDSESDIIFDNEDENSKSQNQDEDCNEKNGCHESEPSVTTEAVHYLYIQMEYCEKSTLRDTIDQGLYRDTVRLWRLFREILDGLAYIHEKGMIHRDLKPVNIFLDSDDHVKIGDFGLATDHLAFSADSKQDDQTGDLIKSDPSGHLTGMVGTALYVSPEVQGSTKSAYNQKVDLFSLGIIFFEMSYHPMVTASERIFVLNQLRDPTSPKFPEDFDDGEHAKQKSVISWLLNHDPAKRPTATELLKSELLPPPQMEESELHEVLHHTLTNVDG

[3] = IC50, inhibition of IN-GCN2 interaction
[4] = 24 h, 24 h infection, read-out: EC50
[5] = P4 MAGI CCR5+ cells, 24 h, read-out: CC50

## CCC1(O)CC(OC2CC(N(C)C)C(OC3CC4OC5CC(=O)C(C)OC5OC4C(C)O3)C(C)O2)c2c(cc3c(c2O)C(=O)c2c(O)ccc(O)c2C3=O)C1C(=O)OC (centres unmarked) [Compound 1a, cinerubin B]
HIV-1Laï; 24 h infection, read-out: EC50
  EC50: 0.494 µM
[1]; 24 h, read-out: CC50
  CC50: > 5 µM

## CCC1(O)CC(OC2CC(N)C(O)C(C)O2)c2c(O)c3c(c(O)c2C1C(=O)OC)C(=O)c1cccc(O)c1C3=O (centres unmarked) [Compound 1b]
[2]; [3]
  IC50: 0.917 µM
[1]; 24 h, read-out: CC50
  CC50: > 5 µM

## CCC1(O)CC(OC2CC(N(C)C)C(O)C(C)O2)c2c(cc3c(c2O)C(=O)c2c(O)ccc(O)c2C3=O)C1C(=O)OC (centres unmarked) [Compound 1c]
[2]; [3]
  IC50: 1.4 µM
[1]; 24 h, read-out: CC50
  CC50: 0.589 µM

## CC(=O)[C@]1(O)Cc2c(O)c3c(c(O)c2[C@@H](O[C@H]2C[C@H](N)[C@H](O)[C@H](C)O2)C1)C(=O)c1c(O)cccc1C3=O [Compound 1d]
[1]
  CC50: 0.04 µM

## CCC1(O)CC(OC2CC(N(C)C)C(O)C(C)O2)c2c(O)c3c(c(O)c2C1OC1CC(N(C)C)C(O)C(C)O1)C(=O)c1cccc(O)c1C3=O (centres unmarked) [Compound 1e]
[2]
  IN-GCN2 interaction (%): 17.07%
[1]; 24 h, read-out: CC50
  CC50: 0.724 µM

## CCC1(O)CC(OC2CC(N(C)C)C(O)C(C)O2)c2c(cc3c(c2O)C(=O)c2c(O)cccc2C3=O)C1C(=O)OC (centres unmarked) [Compound 1f]
HIV-1Laï; 24 h infection, read-out: EC50
  EC50: 1.39 µM
[2]; [3]
  IC50: 3.23 µM
[2]
  IN-GCN2 interaction (%): 43.80%
[1]; 24 h, read-out: CC50
  CC50: 2.35 µM

## CCCCCCCC(=O)OCC(=O)C1(O)Cc2c(O)c3c(c(O)c2C(OC2CC(N)C(O)C(C)O2)C1)C(=O)c1c(OC)cccc1C3=O (centres unmarked) [Compound 1g, adriamycin octanoate]
HIV-1Laï; [4]
  EC50: 0.211 µM
HIV-1Laï
  SI (CC50/EC50): 7.9
HIV-1Laï; listed as NSC149584
  SI (CC50/EC50): > 10.1
[2]; [3]
  IC50: 3.95 µM and 4 µM
[1]; 24 h, read-out: CC50
  CC50: 1.67 µM

## COc1cccc2c1C(=O)c1c(O)c3c(c(O)c1C2=O)CC(O)(C(C)=O)CC3OC1CC(N)C(OC2CC(O)C(O)C(C)O2)C(C)O1 (centres unmarked) [Compound 1h]
HIV-1Laï; [4]
  EC50: 1.66 µM
HIV-1Laï
  SI (CC50/EC50): >3
[2]; [3]
  IC50: 6.5 µM
[1]
  CC50 at 24 h: > 5 µM

## CCOC(OCC)C(=O)OCC(=O)C1(O)Cc2c(O)c3c(c(O)c2C(OC2CC(N)C(O)C(C)O2)C1)C(=O)c1c(OC)cccc1C3=O (centres unmarked) [Compound 1i]
HIV-1Laï; 24 h
  EC50: > 5 µM
[2]; [3]
  IC50: 8.05 µM
[1]
  CC50 at 24 h: > 5 µM

## COC(=O)[C@@H]1c2cc3c(c(O)c2[C@@H](O[C@@H]2O[C@@H](C)[C@H](OC)[C@@](C)(OC)[C@H]2OC)C[C@]1(C)O)C(=O)c1c(O)cc2c(c1C3=O)O[C@@H]1O[C@@]2(C)[C@H](O)[C@@H](N(C)C)[C@@H]1O [Compound 1j]
[2]; [3]
  IC50: 8.88 µM
[1]
  CC50 at 24 h: 0.311 µM

## CC[C@@]1(O)C[C@H](O[C@H]2C[C@H](N(C)C)[C@H](O[C@H]3C[C@H](O)[C@H](O[C@H]4CCC(=O)[C@H](C)O4)[C@H](C)O3)[C@H](C)O2)c2c(cc3c(c2O)C(=O)c2c(O)cccc2C3=O)[C@H]1C(=O)OC [Compound 1k]
[2]
  IN-GCN2 interaction (%): 28.46%
[1]; 24 h, read-out: CC50
  CC50: 0.114 µM

## CCCCCCCCCCCCCCCCCC(=O)OCC(=O)OCC(=O)C1(O)Cc2c(O)c3c(c(O)c2C(OC2CC(N)C(O)C(C)O2)C1)C(=O)c1c(OC)cccc1C3=O (centres unmarked) [Compound 1m]
[2]; [3]
  IC50: 20.6 µM
[1]; [5]
  CC50 at 24 h: > 5 µM

## CCN(CC)C1CC(OC2CC(O)(C(=O)CO)Cc3c(O)c4c(c(O)c32)C(=O)c2c(OC)cccc2C4=O)OC(C)C1O (centres unmarked) [Compound 1n]
[2]; [3]
  IC50: 29.4 µM
[1]; 24 h, read-out: CC50
  CC50: 0.512 µM

## COc1cccc2c1C(=O)c1c(O)c3c(c(O)c1C2=O)CC(O)(C(C)=O)CC3OC1CC(N(C)C)C(O)C(C)O1 (centres unmarked) [Compound 1o]
[2]; [3]
  IC50: 43.7 µM
[1]
  CC50 at 24 h: 0.256 µM

## COc1cccc2c1C(=O)c1c(O)c3c(c(O)c1C2=O)CC(O)(C(C)=O)CC3OC1CC([N+](C)(C)C)C(O)C(C)O1 (centres unmarked) [Compound 1q]
HIV-1Laï; [4]
  EC50: > 5 µM
[2]; [3]
  IC50: 75 µM
[1]; 24 h, read-out: CC50
  CC50: > 5 µM

## COc1ccc2ccccc2c1/C=C/C(=O)c1ccc(OCc2ccccc2)cc1O [Compound 2a]
HIV-1Laï
  effect on HIV replication, in words: pro-viral
[2]; [3]
  IC50: 2.6 µM
[1]; [5]
  CC50 at 24 h: > 5 µM

## O=C1CC(c2ccc(O)c(-c3c(O)cc4c(c3O)C(=O)CC(c3ccc(O)cc3)O4)c2)Oc2cc(O)cc(O)c21 (centres unmarked) [Compound 2c]
[2]; [3]
  IC50: > 100 µM
[1]; [5]
  CC50 at 24 h: > 5 µM

## O=C1c2c(O)ccc(O)c2C(=O)c2c(NCCO)ccc(NCCO)c21 [Compound 2e]
HIV-1Laï; [4]
  EC50: > 5 µM
[2]; [3]
  IC50: 4.4 µM
[1]
  CC50 at 24 h: > 5 µM

## NC(CS)C(=O)NCCNc1ccc(NCCNC(=O)C(N)CS)c2c1C(=O)c1c(O)ccc(O)c1C2=O (centres unmarked) [Compound 2f]
[2]; [3]
  IC50: 6.4 µM
[1]; [5]
  CC50 at 24 h: 3.48 µM

## O=C1c2c(O)ccc(O)c2C(=O)c2c(NCCOCCO)ccc(NCCOCCO)c21 [Compound 2g]
HIV-1Laï; [4]
  EC50: > 5 µM
[2]; [3]
  IC50: 6.6 µM
[1]
  CC50 at 24 h: > 5 µM

## CC(=O)Nc1ccc(Nc2ccc(NCCO)c3c2C(=O)c2c(O)ccc(O)c2C3=O)cc1 [Compound 2h]
HIV-1Laï; [4]
  EC50: > 5 µM
[2]; [3]
  IC50: 10.6 µM
[1]; [5]
  CC50 at 24 h: > 5 µM

## O=C1c2c(O)ccc(O)c2C(=O)c2c(NCCCCO)ccc(NCCCCO)c21 [Compound 2i]
HIV-1Laï; [4]
  EC50: > 5 µM
[2]; [3]
  IC50: 11.2 µM
[1]; [5]
  CC50 at 24 h: > 5 µM

## CN(C)CCCCNc1ccc(NCCCCN(C)C)c2c1C(=O)c1c(O)ccc(O)c1C2=O [Compound 2j]
[2]; read-out: IC50, inhibition of IN-GCN2 interaction
  IC50: 11.4 µM
[1]; [5]
  CC50 at 24 h: > 5 µM

## O=C1c2c(O)ccc(O)c2C(=O)c2c(NCCCCCO)ccc(NCCCCCO)c21 [Compound 2k]
HIV-1Laï; [4]
  EC50: > 5 µM
[2]; [3]
  IC50: 12.2 µM
[1]; [5]
  CC50 at 24 h: > 5 µM
